Experiment: xn = mol fraction of the nth substance listed
Conditions: 101.32 kPa, Liquid; for speed of sound: Frequency=3 MHz, Linear variable-path acoustic interferometer

CC(C)C(=O)O [2-methylpropanoic acid] + C1COCCO1
Conditions | mass density [kg/m3] | speed of sound [m/s]
295.15 K, x2 = 0 | 945.28 | 1100.2
295.15 K, x2 = 0.1 | 955.63 | 1119.6
295.15 K, x2 = 0.2 | 965.46 | 1140
295.15 K, x2 = 0.3 | 975.08 | 1161.7
295.15 K, x2 = 0.4 | 984.2 | 1184.5
295.15 K, x2 = 0.5 | 993.05 | 1208.8
295.15 K, x2 = 0.6 | 1001.52 | 1234.7
295.15 K, x2 = 0.7 | 1009.56 | 1262.3
295.15 K, x2 = 0.8 | 1017.23 | 1291.8
295.15 K, x2 = 0.9 | 1024.38 | 1323.6
298.15 K, x2 = 0 | 942.22 | 1086
298.15 K, x2 = 0.1 | 952.65 | 1105.4
298.15 K, x2 = 0.2 | 962.63 | 1125.9
298.15 K, x2 = 0.3 | 972.12 | 1147.5
298.15 K, x2 = 0.4 | 981.18 | 1170.5
298.15 K, x2 = 0.5 | 989.97 | 1194.9
298.15 K, x2 = 0.6 | 998.46 | 1220.8
298.15 K, x2 = 0.7 | 1006.5 | 1248.6
298.15 K, x2 = 0.8 | 1014.12 | 1278.3
298.15 K, x2 = 0.9 | 1021.3 | 1310.3
301.15 K, x2 = 0 | 939.16 | 1072.1
301.15 K, x2 = 0.1 | 949.87 | 1091.5
301.15 K, x2 = 0.2 | 959.66 | 1111.9
301.15 K, x2 = 0.3 | 969.21 | 1133.6
301.15 K, x2 = 0.4 | 978.18 | 1156.6
301.15 K, x2 = 0.5 | 986.93 | 1181.1
301.15 K, x2 = 0.6 | 995.31 | 1207.2
301.15 K, x2 = 0.7 | 1003.43 | 1235
301.15 K, x2 = 0.8 | 1011.08 | 1264.9
301.15 K, x2 = 0.9 | 1018.24 | 1297.1
304.15 K, x2 = 0 | 936.1 | 1058.2
304.15 K, x2 = 0.1 | 946.87 | 1077.6
304.15 K, x2 = 0.2 | 956.7 | 1098
304.15 K, x2 = 0.3 | 966.21 | 1119.7
304.15 K, x2 = 0.4 | 975.19 | 1142.8
304.15 K, x2 = 0.5 | 983.97 | 1167.3
304.15 K, x2 = 0.6 | 992.36 | 1193.4
304.15 K, x2 = 0.7 | 1000.47 | 1221.5
304.15 K, x2 = 0.8 | 1008.1 | 1251.5
304.15 K, x2 = 0.9 | 1015.19 | 1283.9
307.15 K, x2 = 0 | 933.04 | 1043.4
307.15 K, x2 = 0.1 | 943.94 | 1062.8
307.15 K, x2 = 0.2 | 953.7 | 1083.4
307.15 K, x2 = 0.3 | 963.19 | 1105.1
307.15 K, x2 = 0.4 | 972.14 | 1128.3
307.15 K, x2 = 0.5 | 981.02 | 1152.9
307.15 K, x2 = 0.6 | 989.41 | 1179.3
307.15 K, x2 = 0.7 | 997.53 | 1207.5
307.15 K, x2 = 0.8 | 1005.12 | 1237.9
307.15 K, x2 = 0.9 | 1011.87 | 1270.7
310.15 K, x2 = 0 | 929.98 | 1030.8
310.15 K, x2 = 0.1 | 941.03 | 1050.1
310.15 K, x2 = 0.2 | 950.89 | 1070.6
310.15 K, x2 = 0.3 | 960.24 | 1092.3
310.15 K, x2 = 0.4 | 969.24 | 1115.4
310.15 K, x2 = 0.5 | 978.07 | 1139.9
310.15 K, x2 = 0.6 | 986.45 | 1166.3
310.15 K, x2 = 0.7 | 994.54 | 1194.5
310.15 K, x2 = 0.8 | 1002.1 | 1224.9
310.15 K, x2 = 0.9 | 1008.86 | 1257.7
313.15 K, x2 = 0 | 926.92 | 1015.2
313.15 K, x2 = 0.1 | 938.11 | 1034.6
313.15 K, x2 = 0.2 | 947.93 | 1055.1
313.15 K, x2 = 0.3 | 957.22 | 1076.9
313.15 K, x2 = 0.4 | 966.21 | 1100.2
313.15 K, x2 = 0.5 | 975.03 | 1125
313.15 K, x2 = 0.6 | 983.45 | 1151.6
313.15 K, x2 = 0.7 | 991.62 | 1180.1
313.15 K, x2 = 0.8 | 999.14 | 1210.9
313.15 K, x2 = 0.9 | 1005.92 | 1244.2

Reference: the NIST ThermoML archive (doi:10.1021/je5010643)
